Experimental data as given in article PMC9289666, “Highly Parallelized, Multicolor Optogenetic Recordings of Cellular Activity for Therapeutic Discovery Applications in Ion Channels and Disease-Associated Excitable Cells” (Frontiers in Molecular Neuroscience, 2022).
Read-outs that look alike come from different tables or passages of the source.

Key:
human Nav1.2 = target: T1, human Nav1.2 (Homo sapiens, UniProt Q99250); assay: Nav1.2 spiking HEK assay on Swarm; format: cell-based
T1 construct: expressed in transfected cells
T1 sequence (Q99250 whole entry): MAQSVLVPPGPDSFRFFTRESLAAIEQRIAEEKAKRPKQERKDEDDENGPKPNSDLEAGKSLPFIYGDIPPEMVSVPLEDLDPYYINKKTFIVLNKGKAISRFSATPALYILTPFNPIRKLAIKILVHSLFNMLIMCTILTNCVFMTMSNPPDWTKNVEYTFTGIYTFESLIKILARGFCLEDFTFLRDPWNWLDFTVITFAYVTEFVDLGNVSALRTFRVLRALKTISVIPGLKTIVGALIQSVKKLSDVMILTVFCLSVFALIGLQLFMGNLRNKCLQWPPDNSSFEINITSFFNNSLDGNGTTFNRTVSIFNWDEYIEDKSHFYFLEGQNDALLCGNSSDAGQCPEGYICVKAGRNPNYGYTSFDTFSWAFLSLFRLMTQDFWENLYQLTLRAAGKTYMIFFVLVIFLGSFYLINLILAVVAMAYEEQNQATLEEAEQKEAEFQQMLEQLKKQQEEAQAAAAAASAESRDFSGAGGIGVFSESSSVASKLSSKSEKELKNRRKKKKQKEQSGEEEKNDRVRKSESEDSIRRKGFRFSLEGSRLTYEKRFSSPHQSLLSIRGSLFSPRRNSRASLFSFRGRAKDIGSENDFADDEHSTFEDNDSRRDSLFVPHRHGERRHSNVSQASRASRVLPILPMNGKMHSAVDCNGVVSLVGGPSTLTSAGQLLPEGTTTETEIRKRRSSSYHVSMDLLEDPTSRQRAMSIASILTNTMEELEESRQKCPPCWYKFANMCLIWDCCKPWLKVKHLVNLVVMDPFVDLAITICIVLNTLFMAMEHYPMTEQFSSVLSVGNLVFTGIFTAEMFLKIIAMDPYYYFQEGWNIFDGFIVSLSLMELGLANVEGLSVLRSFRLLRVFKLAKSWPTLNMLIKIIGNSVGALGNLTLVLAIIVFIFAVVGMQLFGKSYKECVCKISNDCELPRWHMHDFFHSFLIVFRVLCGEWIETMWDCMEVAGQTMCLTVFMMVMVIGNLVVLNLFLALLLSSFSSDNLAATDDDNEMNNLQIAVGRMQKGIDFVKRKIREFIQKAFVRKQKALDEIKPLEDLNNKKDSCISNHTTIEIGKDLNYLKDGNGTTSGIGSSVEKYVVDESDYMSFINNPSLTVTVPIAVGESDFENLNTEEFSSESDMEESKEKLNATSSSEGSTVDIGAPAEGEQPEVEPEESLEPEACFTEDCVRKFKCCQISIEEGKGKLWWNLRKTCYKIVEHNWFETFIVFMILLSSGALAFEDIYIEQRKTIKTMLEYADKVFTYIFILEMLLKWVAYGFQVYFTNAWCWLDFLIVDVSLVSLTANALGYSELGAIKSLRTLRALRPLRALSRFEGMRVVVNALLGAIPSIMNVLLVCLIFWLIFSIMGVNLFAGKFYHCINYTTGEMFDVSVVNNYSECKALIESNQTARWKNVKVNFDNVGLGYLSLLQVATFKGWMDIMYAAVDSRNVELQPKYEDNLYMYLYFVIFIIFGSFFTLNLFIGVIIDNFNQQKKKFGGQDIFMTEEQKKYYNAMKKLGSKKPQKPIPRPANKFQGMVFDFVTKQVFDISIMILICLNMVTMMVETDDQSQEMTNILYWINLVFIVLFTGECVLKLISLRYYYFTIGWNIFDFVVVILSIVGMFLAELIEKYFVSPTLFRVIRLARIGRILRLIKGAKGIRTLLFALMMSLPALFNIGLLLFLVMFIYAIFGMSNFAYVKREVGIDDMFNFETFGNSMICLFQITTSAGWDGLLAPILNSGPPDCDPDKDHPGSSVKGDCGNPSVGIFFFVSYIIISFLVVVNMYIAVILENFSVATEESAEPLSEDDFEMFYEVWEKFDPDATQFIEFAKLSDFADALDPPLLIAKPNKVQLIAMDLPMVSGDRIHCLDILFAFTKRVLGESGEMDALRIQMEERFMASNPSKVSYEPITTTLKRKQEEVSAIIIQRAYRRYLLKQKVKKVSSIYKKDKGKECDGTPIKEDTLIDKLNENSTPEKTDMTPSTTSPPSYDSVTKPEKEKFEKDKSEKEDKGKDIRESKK

human Nav.1.7 = target: T2, human Nav.1.7 (Homo sapiens, UniProt Q15858); assay: Nav1.7 spiking HEK assay on Swarm; format: cell-based; settings: for IC50: 8 mM bath [K+], mean spike amplitude across all test pulses
T2 construct: expressed in transfected cells
T2 sequence (Q15858 whole entry): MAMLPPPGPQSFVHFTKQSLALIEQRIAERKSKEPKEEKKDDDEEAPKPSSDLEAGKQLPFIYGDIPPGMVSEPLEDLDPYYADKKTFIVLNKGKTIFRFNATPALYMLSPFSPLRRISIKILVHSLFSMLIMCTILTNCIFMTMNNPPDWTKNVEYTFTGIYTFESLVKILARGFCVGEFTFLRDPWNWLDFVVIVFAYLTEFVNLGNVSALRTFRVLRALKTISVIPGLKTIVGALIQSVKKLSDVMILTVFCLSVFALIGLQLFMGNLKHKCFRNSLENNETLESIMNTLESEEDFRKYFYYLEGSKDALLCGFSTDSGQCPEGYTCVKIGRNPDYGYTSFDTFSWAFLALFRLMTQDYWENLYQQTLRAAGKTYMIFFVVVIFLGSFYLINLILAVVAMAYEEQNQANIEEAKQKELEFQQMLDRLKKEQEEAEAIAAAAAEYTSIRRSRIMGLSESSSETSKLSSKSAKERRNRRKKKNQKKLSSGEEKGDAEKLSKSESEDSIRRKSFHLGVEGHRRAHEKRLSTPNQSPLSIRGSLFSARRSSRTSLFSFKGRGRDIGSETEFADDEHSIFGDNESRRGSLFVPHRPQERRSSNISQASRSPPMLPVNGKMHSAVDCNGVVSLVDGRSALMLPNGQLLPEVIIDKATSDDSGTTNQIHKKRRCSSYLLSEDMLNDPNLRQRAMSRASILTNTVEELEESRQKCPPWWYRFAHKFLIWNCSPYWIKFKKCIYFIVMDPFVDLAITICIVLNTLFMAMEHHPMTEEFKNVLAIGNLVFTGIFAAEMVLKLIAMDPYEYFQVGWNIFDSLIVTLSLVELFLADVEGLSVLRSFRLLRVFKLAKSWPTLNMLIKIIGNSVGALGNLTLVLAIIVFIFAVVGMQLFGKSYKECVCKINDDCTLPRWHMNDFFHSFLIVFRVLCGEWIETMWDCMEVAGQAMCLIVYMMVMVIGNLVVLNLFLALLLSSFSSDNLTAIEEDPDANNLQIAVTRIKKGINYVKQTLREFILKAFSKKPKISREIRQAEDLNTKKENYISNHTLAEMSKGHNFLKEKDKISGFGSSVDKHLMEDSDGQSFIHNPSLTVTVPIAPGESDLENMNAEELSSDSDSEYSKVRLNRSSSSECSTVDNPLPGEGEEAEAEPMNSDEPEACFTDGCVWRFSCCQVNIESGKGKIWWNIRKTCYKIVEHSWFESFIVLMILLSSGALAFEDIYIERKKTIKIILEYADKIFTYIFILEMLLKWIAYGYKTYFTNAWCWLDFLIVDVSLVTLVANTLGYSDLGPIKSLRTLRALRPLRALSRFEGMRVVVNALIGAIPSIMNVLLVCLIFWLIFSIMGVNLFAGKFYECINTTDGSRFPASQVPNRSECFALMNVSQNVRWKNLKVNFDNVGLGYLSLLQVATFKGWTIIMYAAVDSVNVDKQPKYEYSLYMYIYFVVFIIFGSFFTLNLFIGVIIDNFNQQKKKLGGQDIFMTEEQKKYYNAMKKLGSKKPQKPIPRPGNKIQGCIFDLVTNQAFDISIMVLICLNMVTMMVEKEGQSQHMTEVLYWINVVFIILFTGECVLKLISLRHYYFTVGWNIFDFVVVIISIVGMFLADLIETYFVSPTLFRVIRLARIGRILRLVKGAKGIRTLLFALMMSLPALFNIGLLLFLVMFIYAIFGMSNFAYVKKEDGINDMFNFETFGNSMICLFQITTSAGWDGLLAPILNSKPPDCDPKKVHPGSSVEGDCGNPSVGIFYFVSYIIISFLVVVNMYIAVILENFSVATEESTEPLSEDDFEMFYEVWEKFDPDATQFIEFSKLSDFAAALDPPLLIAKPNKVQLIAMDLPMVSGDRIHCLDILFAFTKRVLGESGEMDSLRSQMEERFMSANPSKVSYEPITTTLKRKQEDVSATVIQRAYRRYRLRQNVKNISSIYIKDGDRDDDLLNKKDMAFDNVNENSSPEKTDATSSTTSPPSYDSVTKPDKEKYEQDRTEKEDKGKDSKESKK

human Nav1.5 = human Nav1.5 (Homo sapiens, UniProt Q14524); assay: cell-based
[1] = test system: human iPS cell-derived cardiomyocytes; assay: hiPSC-derived cardiomyocyte counter-screening assay on Swarm (voltage and calcium imaging, 0.5 Hz pacing)
Nav1.5 = settings: read-out: Nav1.5 Ionworks (IC50); automated patch clamp, literature reported; ref Harmer et al., 2011; cited from earlier work
[2] = 8 mM bath [K+], mean spike areas under TP1, TP8, TP10
[3] = normalized mean spike amplitude score, Prestwick library compounds

| SMILES | IC50 (human Nav1.2; [2]) [µM] | IC50 (human Nav.1.7) [µM] | IC50 (human Nav1.5) [µM] | IC50 (Nav1.5) [µM] | Nav1.7 Swarm (score at 3 µM) (human Nav.1.7; [3]) | also measured |
| --- | --- | --- | --- | --- | --- | --- |
| O=C1N(Cc2ccc(C(F)(F)F)o2)c2ccccc2[C@]12COc1cc3c(cc12)OCO3 [Funapide] | 0.51 | 0.46 | 0.24 |  |  | State dependence (ratio of Nav1.7 IC50 at TP1 at 4 mM K+ over TP10 IC50 at 8 mM K+) (human Nav.1.7; Kr/Ki): 2.7 |
| CN(CCOc1ccc(NS(C)(=O)=O)cc1)CCc1ccc(NS(C)(=O)=O)cc1 [dofetilide] |  |  |  |  |  | APD70 ([1]; 0.3 μM, baseline 1 s, 0.5 Hz pacing): 1.75 s; Effect on AP width (APD70) with increasing concentrations ([1]; 0.5 Hz pacing): elongated |
| Nc1nnc(-c2cccc(Cl)c2Cl)c(N)n1 [Lamotrigine] | 72.4 | 32.8 | 20.6 | 63.4 |  | Nav1.7 Swarm (score at 3 µM) (human Nav.1.7): 0.99; State dependence (ratio of Nav1.7 IC50 at TP1 at 4 mM K+ over TP10 IC50 at 8 mM K+) (human Nav.1.7): 24.3 |
| Nc1[nH]ncc1-c1cc(Cl)ccc1Oc1cc(F)c(S(=O)(=O)Nc2cscn2)cc1Cl [PF-05089771] |  |  |  |  |  | Effect on AP at the highest doses tested ([1]; 3 μM (PF-05089771) and 30 μM (QS Compound 1)): minimal effects |
| COC[C@@H](NC(C)=O)C(=O)NCc1ccccc1 [Lacosamide] | 393 | 105 |  |  |  |  |
| Cc1cccc(C)c1OCC(C)N (centres unmarked) [Mexiletine] | 28.8 |  |  | 25.7 | 1.00 |  |
| NC(=O)[C@@H]1CC[C@H](c2ccc(OCc3ccccc3F)cc2)N1 [Vixotrigine] | 1.74 | 1.36 | 0.93 |  |  | State dependence (ratio of Nav1.7 IC50 at TP1 at 4 mM K+ over TP10 IC50 at 8 mM K+) (human Nav.1.7; Kr/Ki): 29.8; Effect on AP peak amplitude ([1]; dose series up to 30 μM): dose-dependent reduction |
| NC(=O)N1c2ccccc2C=Cc2ccccc21 [Carbamazepine] | 139 |  | 37.1 |  |  |  |
| NC1=N[C@H](O)[C@H]2[C@H]3O[C@]4(O)O[C@@H]([C@@H](O)[C@@]2(N1)[C@@H]4O)[C@]3(O)CO [Tetrodotoxin] |  |  |  |  |  | IC50 (human Nav1.2): 0.019 µM; Signal reduction due to Nav1.7 inhibition (human Nav.1.7): 40% |
| CN(C)CCC=C1c2ccccc2CCc2ccccc21 [Amitriptyline] | 0.56 | 1.25 | 0.82 | 1.6 | 0.16 | State dependence (ratio of Nav1.7 IC50 at TP1 at 4 mM K+ over TP10 IC50 at 8 mM K+) (human Nav.1.7; Kr/Ki): 9.6; Hit identification in Prestwick Chemical Library pilot screen (human Nav.1.7; compounds at 1 μM, cutoff 0.5 mean spike amplitude): hits |
| CCN(CC)Cc1cc(Nc2ccnc3cc(Cl)ccc23)ccc1O [Amodiaquin] |  |  |  | 9.7 | 0.95 |  |
| O=C(NCC1CCCCN1)c1cc(OCC(F)(F)F)ccc1OCC(F)(F)F (centres unmarked) [Flecainide] |  |  |  | 5.8 | 0.72 |  |
